Active and inactive are the calls of the source. The rule behind the calls is not given here.

Data set [1] relates to Japanese encephalitis virus. Kind of data set: Antiviral activity against Japanese encephalitis virus infected in human TE671 cells assessed as reduction in viral yield treated immediately post-viral infection measured at 72 hrs post-infection by plaque assay. In kind it is functional, organism-based. The note with it: TE-671, 72 h.
In data set [2] the test system is Enterovirus A71. Kind of data set: Antiviral activity against Enterovirus A71 infected in human RD cells assessed as reduction in viral yield measured at 48 hrs post-infection by plaque reduction assay. In kind it is functional, organism-based. The note with it: Enterovirus A. In general terms: Plaque reduction counts the foci of infection that form in a cell layer.

Data set [3] concerns Japanese encephalitis virus. Kind of data set: Antiviral activity against Japanese encephalitis virus infected in hamster BHK-21 cells assessed as reduction in viral yield treated immediately post-viral infection measured at 72 hrs post-infection by plaque assay. The note with it: BHK-21, 72 h. Format: functional, organism-based.
A short description of data set [4]: Cytotoxicity against human TE671 cells assessed as reduction in cell viability after 48 hrs by MTT assay. In kind it is cell-based, TE-671. (Formazan colour is commonly taken as a measure of viable cells.)
Data set [5] has as its system Japanese encephalitis virus. The data set can be described thus: Antiviral activity against Japanese encephalitis virus infected in human TE671 cells assessed as reduction in virus-induced cytopathic effect at 10 to 100 uM treated immediately post-infection measured at 36 hrs post-infection by inverted microscopic analysis. In kind it is functional, organism-based. (Damage to the host cells serves as the signal in cytopathic effect assays.)

In data set [6] the test system is Japanese encephalitis virus. The data set can be described thus: Antiviral activity against Japanese encephalitis virus infected in human TE671 cells assessed as decline in infected cell apoptotic fraction by measuring proportion of cells at subG1 phase treated immediately post-infection measured at 36 hrs post-infection by PI-staining based flow cytometric analysis. In kind it is functional, organism-based. Conditions: for IC50: TE-671, 36 h.

The subject of data set [7] is Japanese encephalitis virus. The data set can be described thus: Antiviral activity against Japanese encephalitis virus infected in human TE671 cells assessed as reduction in virus infectivity by measuring decrease in NS3-positive cells treated immediately post-infection measured after 24 hrs by DAPI-staining based immunofluorescence analysis. In kind it is functional, organism-based. Conditions: for IC50: TE-671, 24 h.

For data set [8], the system named is Japanese encephalitis virus. The data set can be described thus: Antiviral activity against Japanese encephalitis virus infected in human TE671 cells assessed as inhibition of extracellular viral particles production by measuring reduction in virus yield measured after 36 hrs by plaque assay. Format: functional, organism-based. The note with it: for IC50: TE-671, 36 h.

Data set [9] is described as follows: Therapeutic index, ratio of CC50 for human TE671 cells to IC50 for antiviral activity against Japanese encephalitis virus infected in human TE671 cells assessed as reduction in virus yield by plaque assay. In kind it is toxicity, cell-based. Conditions: read-out: Ratio CC50/IC50.
The test system of data set [10] is Japanese encephalitis virus. The data set can be described thus: Antiviral activity against Japanese encephalitis virus infected in human TE671 cells assessed as reduction in virus entry at late stage by measuring decrease in NS3-positive cells at 1 to 10 uM treated at 1 hr post-infection followed by virus/compound mixture wash-out at 1 hr post-incubation followed by culturing of cells for 24 hrs by DAPI-staining based immunofluorescence analysis. In kind it is functional, organism-based.

Data set [11] relates to Japanese encephalitis virus. The data set can be described thus: Inhibition of synthesis of Japanese encephalitis virus RNA genome transfected as EGFP replicon in human TE671 cells assessed as lowered ratio of negative to positive sense strand RNA at 10 uM treated at 1 hr post-transfection and measured at 36 hrs post treatment by RT-PCR analysis. Format: functional, organism-based.

In data set [12] the test system is Japanese encephalitis virus. The data set can be described thus: Antiviral activity against Japanese encephalitis virus infected in human TE671 cells assessed as inhibition of intracellular virion production at 10 uM measured at 24 to 48 hrs post-infection by plaque assay. Format: functional, organism-based.
The test system of data set [13] is Japanese encephalitis virus. The data set can be described thus: Antiviral activity against Japanese encephalitis virus infected in human TE671 cells assessed as reduction in virus entry at early stage by measuring decrease in NS3-positive cells treated immediately after viral infection followed by virus/compound mixture wash-out at 1 hr post-incubation followed by culturing of cells for 24 hrs by DAPI-staining based immunofluorescence analysis. In kind it is functional, organism-based. The note with it: TE-671.

Data set [14] concerns Japanese encephalitis virus. The data set can be described thus: Antiviral activity against Japanese encephalitis virus infected in human TE671 cells assessed as reduction in virus entry at late stage by measuring decrease in NS3-positive cells treated at 1 hr post-infection followed by virus/compound mixture wash-out at 1 hr post-incubation followed by culturing of cells for 24 hrs by DAPI-staining based immunofluorescence analysis. In kind it is functional, organism-based. The note with it: TE-671.

Usually IC50 stands for the concentration that inhibits the measured activity by half. Take `CCOC(=O)C1=C(Nc2cc(C)cc(C)c2)OCC1=O`: the IC50 was 12.7 µM in data set [1], 200 µM in data set [2] and 12.7 µM in [3].
In general, CC50 refers to the concentration at which the toxic effect on the cells reaches its halfway point. On to `CCOC(=O)C1=C(Nc2ccccc2Cl)OCC1=O`, for which, in [4], the CC50 at 48 h was over 100 µM. Besides, in [5], the inhibition result is “Active”. Moreover, in [6], the inhibition result is “Dose-dependent effect” and the IC50 was determined as 50.5 µM.
For `CCOC(=O)C1=C(Nc2ccc(Br)cc2)OCC1=O`, in data set [4], the CC50 at 48 h came to 129 µM. Moreover, the inhibition entry in [5] and in [10] was “Active” in each case. Besides, the inhibition entry in [6], in [7] and in data set [8] was “Dose-dependent effect” throughout. In addition, the values for the IC50 in data set [6], in [7] and in data set [8] were 2 µM, 0.4 µM and 7.8 µM, respectively. In addition, the selectivity ratio in data set [9] was 16.6. The inhibition entry in data set [11] is “inactive”.
Turning to `CCOC(=O)C1=C(Nc2cccc(Cl)c2)OCC1=O`, the CC50 at 48 h in [4] is over 100 µM. In addition, in data set [5], the inhibition result is “Active”. Further, the inhibition result in data set [6] is “inactive”.
For the compound `CCOC(=O)C1=C(Nc2cccc(Br)c2)OCC1=O`, the CC50 at 48 h in [4] stood at 151 µM. Further, the inhibition result in data set [5], in [10] and in data set [11] was “Active” each time. Also, the inhibition entry in data set [6], in data set [7] and in [8] was “Dose-dependent effect” in each case. In addition, the IC50 in [6] was 3.1 µM; in [7], 3.2 µM; in data set [8] it was 12.1 µM. For the same compound, in [9], the selectivity ratio was determined as 12.4.
As for `CCOC(=O)C1=C(Nc2ccc(Cl)cc2)OCC1=O`, the CC50 at 48 h in data set [4] is over 100 µM. In addition, the inhibition entry in data set [5] was “Active”. The inhibition result in data set [6] is “inactive”.
`CCOC(=O)C1=C(Nc2ccccc2Br)OCC1=O`: in data set [4], the CC50 at 48 h was determined as 232 µM. Besides, the inhibition entry in data set [5], in [12] and in data set [11] was “Active” each time. The inhibition entry in data set [6], in data set [7] and in data set [8] was “Dose-dependent effect” each time. Besides, the IC50 in [6] was 3.2 µM; in data set [7] it was 0.2 µM; in [8], 4.6 µM; in data set [13], 0.2 µM; in [14] it was 10.2 µM. Moreover, the selectivity ratio in [9] was found to be 50.2.

The values above are taken from ChEMBL document CHEMBL4406878, “Antiviral efficacy of bromo-anilino substituents of 4,5-dihydrofuran-3-carboxylate compound CW-33 against Japanese encephalitis virus” (Bioorg Med Chem Lett, 2019).
